US7951359B2, “Compositions and methods for therapy or prevention of chemotherapy-induced neuropathy” (Merck Serono SA, priority 2004, dated 2011)
Where two headings read alike, the source gives them in different places.

Tests used:
[1] = tested on: cisplatin induced neuropathy; experiment: Hot plate test, therapeutic treatment of established cisplatin neuropathy; type: in vivo, rat
[2] = tested on: cisplatin induced neuropathy; type: in vivo, rat
Experimental: Electrophysiological monitoring in cisplatin-induced neuropathy model was carried out as described in Example 17. The objective was to assess the effect of co-administration with IL-6 in cisplatin-induced loss of fiber/nerve function.
(§1) Electrophysiological recordings were performed using a Neuromatic 2000M electromyograph (EMG) (Dantec, Les Ulis, France). Rats were anaesthetized by IP injection of 60 mg/kg ketamine chlorhydrate (Imalgene 500®, Rhône Merieux, Lyon, France). The normal body temperature was maintained around […] with a heating lamp and verified using a contact thermometer (Quick, Bioblock Scientific, Illkirch, France) placed on the tail surface.
Compound muscle action potential (CMAP) of M wave signal (or electrically evoked muscle potential) was recorded in the gastrocnemius muscle after stimulation of the sciatic nerve. M wave reflects the current developed during the action potential of muscle fibers. A reference electrode and an active needle were placed in the hind paw. A ground needle was inserted on the lower back of the rat. Sciatic nerve was stimulated with a single 0.2 ms pulse at supramaximal intensity. The […] of the motor wave was recorded and expressed in ms.
(§2) Sensitive nerve conduction velocity (SNCV) was also recorded. The tail skin electrodes were placed as follows: a reference needle inserted at the base of the tail and an anode needle placed 30 mm away from the reference needle toward the extremity of the tail. A ground needle electrode was inserted between the anode and reference needles. The caudal nerve was stimulated with a series of 20 pulses (for 0.2 ms) at an intensity of 12.8 mA. The velocity was expressed in m/s.
(§3) H-wave reflex was recorded in the hind footpad muscle after stimulation of the sciatic nerve. A reference electrode and a ground needle were placed on the lower back of the rat. The sciatic nerve was stimulated with a single 0.2 ms pulse at supramaximal intensity. The amplitude (mV) of H wave and the proportion of animal lacking H wave response were the parameters studied.

[3] = tested on: cisplatin induced neuropathy; experiment: Morphometric analysis of sciatic nerve in cisplatin-treated rats, co-administration; type: in vivo, rat
Experimental: The total number of fibers per nerve section was obtained from 3 randomized slices of each sample. The counting was performed on 2 selected fields per slice.

[4] = tested on: cisplatin induced neuropathy; experiment: Hot plate test in cisplatin-treated rats, co-administration; type: in vivo, rat
Experimental: The rat was placed inside a glass cylinder of 17 cm height and 21 cm diameter on a heating-plate maintained at 52° C. (Medite OTS 40, Microm, Francheville, Rhône, France). The animal behavior was observed, particularly the licking of a foot and the adjusted leap. The latency before licking a foot or before jumping to escape the heat (adjusted leap) was recorded. The time needed to feel the thermal pain is related to the thermal sensitivity and tends to increase when thermal sensitivity is altered.

[5] = tested on: cisplatin induced neuropathy; experiment: Morphometric analysis, therapeutic treatment of established cisplatin neuropathy; type: in vivo, rat; conditions: for proportion of degenerated fibers versus control: p≦0.05
Description: The number of degenerated and non-degenerated fibers on the entire surface of each nerve section was counted by an operator in a blinded fashion. All the results (except the data expressed as ratio value) were reported as percentage of changes in reference to the control value.

[6] = Body weight in cisplatin induced neuropathy rat model; type: in vivo
Experimental: (c) 4 treated-cisplatin-intoxicated groups (n=10) consisting of animals receiving daily SC injections of IL-6 compound at 4 different doses: 0.3, 1, 3, 10 μg/kg; and (d) a 4-methylcatechol (4-MC)-treated, cisplatin-intoxicated group (n=10) receiving a daily IP injection of 4-MC at 10 μg/kg. […] The drug was diluted in 0.9% sterile aqueous solution of sodium chloride.

[7] = tested on: cisplatin induced neuropathy; type: in vivo, rat; remark: listed apart in the source
Experimental: The drug was diluted in 0.9% sterile aqueous solution of sodium chloride.
4-MC was diluted in 0.9% sterile aqueous solution of sodium chloride and injected daily via IP route from day 23 to the end of the experiment.
Electrophysiological tests described in Example 17, were carried out in parallel to the behavioral tests (described in the preceding example) in cisplatin-established neuropathy model. The objective was to assess the therapeutic effect of IL-6 in cisplatin-induced loss of fiber/nerve function.
as §1, §2, §3

[8] = cisplatin alone, 3 weeks after cessation of cisplatin

IL-6: Recombinant human IL-6 produced in genetically engineered Chinese Hamster Ovary (CHO) cells
time of the first reaction to heat, significance ([1]; IL-6 10 μg/kg, 2 weeks after IL-6 treatment, p≦0.05): Significant results
time of the first reaction to heat ([1]; IL-6 3 and 10 μg/kg SC daily from day 23, two weeks after initiation, p≦0.05): overall reduction in the time of the first reaction
loss of H wave amplitude by cisplatin ([2]; IL-6 10 μg/kg SC daily, throughout the experiment): fully prevented the loss of H wave amplitude
loss of H wave amplitude by cisplatin ([2]; IL-6 0.3, 1, 3, 10 μg/kg SC daily): reduce/prevent the loss of H wave amplitude
SNCV in cisplatin treated rats ([2]; IL-6, especially at 3 and 10 μg/kg, after 5 weeks): improve SNCV
prevention of cisplatin-induced loss of fiber/nerve function compared with 4-MC ([2]; IL-6 vs 4-MC 10 μg/kg IP): more effective in preventing cisplatin-induced loss of fiber/nerve function than 4-MC
loss of myelin wall by cisplatin ([3]; IL-6 1, 3, 10 μg/kg): significantly protected fibers against the loss of myelin wall
percentage of degenerated fibers by cisplatin ([3]; IL-6 1, 3, 10 μg/kg): reduce the percentage of degenerated fibers
cisplatin-induced axon diameter decrease ([3]; IL-6, statistically significant at 1-10 μg/kg): prevents/reduces cisplatin-induced axon diameter decrease
fiber diameter decrease by cisplatin ([3]; IL-6 all doses tested, statistically significant at 1-10 μg/kg): prevents/reduce the diameter decrease
myelinated fibers in cisplatin treated rats ([3]; IL-6 co-administration): increased myelinated fibers
delay of the first reaction to heat by cisplatin ([4]; IL-6 10 μg/kg SC daily): fully prevented
delay of the first reaction to heat by cisplatin ([4]; IL-6 0.3, 1, 3, 10 μg/kg SC daily, p≦0.05): prevented/reduced delay of the first reaction to heat
cisplatin-induced myelin sheath thinning ([5]; IL-6 10 μg/kg): appeared to reverse cisplatin-induced myelin sheath thinning
percentage of degenerated fibers, significance ([5]; IL-6 10 μg/kg): significant effect
large/small fibers ratio ([5]; IL-6 treatment): slight increase
percentage of degenerated fibers ([5]; IL-6 treatment (3 and 10 μg/kg)): significantly reduced the percentage of degenerated fibers
restoring myelin and fiber degeneration compared with 4-MC ([5]; IL-6 vs 4-MC): more efficient than 4-MC
animal growth under cisplatin with IL-6 ([6]; IL-6 0.3, 1, 3, 10 μg/kg SC daily with cisplatin): marked inhibition of animal growth, regardless of IL-6 treatments undertaken
SNCV in cisplatin-treated animals ([7]; IL-6 3 μg/kg, after 1 week of treatment, p≦0.01): improved the SNCV
loss of H wave amplitude ([7]; IL-6 3 and 10 μg/kg SC daily from day 23, p≦0.05): reversed the loss of H wave amplitude
H wave amplitude loss recovered ([7]; IL-6, 1 week after initiation of treatment): about 50%
H wave amplitude recovery ([7]; IL-6, 2 weeks of treatment): full recovery
curing/ameliorating loss of fiber/nerve function compared with 4-MC ([7]; IL-6 vs 4-MC): more efficient than 4-MC

N.N.[Cl][Pt][Cl] [cisplatin, Cis-dichlorodiamine platinum]
hot plate first reaction to heat versus control ([1]; cisplatin alone, during and 3 weeks post-cisplatin): significant delayed first reaction to heat
SNCV versus non-treated control ([2]; rat, in vivo): significantly slow
reduction of H wave amplitude ([2]; rat, in vivo): about 80%
fiber diameter ([3]; cisplatin alone): significantly decreases fibers diameter
percent of myelinated fibers versus control ([3]; cisplatin alone): significant reduction in the percent of myelinated fibers
percentage of degenerated fibers versus control ([3]; cisplatin alone): two-folds higher
hot plate first reaction to heat versus control ([4]; cisplatin alone, from 3 weeks): significant delayed first reaction to heat
proportion of non-degenerated myelinated fibers versus control [5, 8]: lower
proportion of degenerated fibers versus control [5, 8]: significantly higher
proportion of non-degenerated myelinated fibers versus control ([5]; cisplatin alone, day 23): lower
proportion of degenerated fibers versus control ([5]; cisplatin alone, day 23): significant greater proportion of degenerated fibers
myelin area ([5]; cisplatin alone, day 44, p>0.05): slight but not significant reduction
overall size of myelin versus control ([5]; cisplatin alone, up to day 23, not significant (p>0.05)): slightly reduced
body weight lost at completion of cisplatin administration ([6]; cisplatin 2 mg/kg IP twice a week, 4 weeks, vehicle-treated): about 10%
SNCV versus untreated control ([7]; rat, in vivo): significantly slower
loss in H wave signal amplitude ([7]; rat, in vivo): about 70%
